In ChEMBL document CHEMBL1201862, “PubChem BioAssay data set” (2004):
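Test compounds were applied to cells in 96-well plates for 48 hours at 5 doses. GI50 is the concentration that inhibits growth by half.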 Calls of active or inactive are those of the source. Cut-off read from the data, not from the text of the source: active = GI50 up to about 1.1 µM and inactive = higher.

What was measured:
Assay in all cases: NCI-60 cell line screen, 48 h
CCRF-CEM = system: CCRF-CEM
K562 = system: K562
SF-268 = system: SF-268
OVCAR-8 = system: OVCAR-8
SN12C = system: SN12C
SK-MEL-28 = system: SK-MEL-28
UO-31 = system: UO-31
786-0 = system: 786-0
TK-10 = system: TK-10
A549 = system: A549
SK-MEL-5 = system: SK-MEL-5
UACC-62 = system: UACC-62
NCI-H522 = system: NCI-H522
SW-620 = system: SW-620
PC-3 = system: PC-3
MDA-MB-435 = system: MDA-MB-435
M14 = system: M14
DU-145 = system: DU-145
OVCAR-3 = system: OVCAR-3
HOP-62 = system: HOP-62
SK-MEL-2 = system: SK-MEL-2
MCF7 = system: MCF7
OVCAR-5 = system: OVCAR-5
T47D = system: T47D
SF-295 = system: SF-295
SK-OV-3 = system: SK-OV-3
HT-29 = system: HT-29
IGROV-1 = system: IGROV-1
HCT-116 = system: HCT-116
A498 = system: A498
MDA-MB-231 = system: MDA-MB-231
U-251 = system: U-251
LOX IMVI = system: LOX IMVI
EKVX = system: EKVX
NCI-H23 = system: NCI-H23
HOP-92 = system: HOP-92
NCI-H226 = system: NCI-H226
MDA-N = system: MDA-N
CAKI-1 = system: CAKI-1
UACC-257 = system: UACC-257
COLO 205 = system: COLO 205
NCI/ADR-RES = system: NCI/ADR-RES
OVCAR-4 = system: OVCAR-4
KM12 = system: KM12
Hs-578T = system: Hs-578T
HL-60 = system: HL-60
RXF 393 = system: RXF 393
MOLT-4 = system: MOLT-4
NCI-H460 = system: NCI-H460
ACHN = system: ACHN
SNB-19 = system: SNB-19
BT-549 = system: BT-549
HCT-15 = system: HCT-15
Malme-3M = system: Malme-3M

## C#C[C@]1(O)CC[C@H]2[C@@H]3CCC4=C/C(=N/CCOC(=O)c5cccc6cc7ccccc7nc56)CC[C@@H]4[C@H]3CC[C@@]21C
CCRF-CEM
  GI50: > 100 µM (inactive)
K562
  GI50: > 100 µM (inactive)
SF-268
  GI50: 20.6 µM (inactive)
OVCAR-8
  GI50: 10 µM (inactive)
SN12C
  GI50: 49.1 µM (inactive)
SK-MEL-28
  GI50: 75.2 µM (inactive)
UO-31
  GI50: 30.5 µM (inactive)
786-0
  GI50: 34.5 µM (inactive)
TK-10
  GI50: 31.5 µM (inactive)
A549
  GI50: 28.4 µM (inactive)
SK-MEL-5
  GI50: 23.7 µM (inactive)
UACC-62
  GI50: 22 µM (inactive)
NCI-H522
  GI50: 17.9 µM (inactive)
SW-620
  GI50: 57.3 µM (inactive)
PC-3
  GI50: 11.7 µM (inactive)
MDA-MB-435
  GI50: 27.3 µM (inactive)
M14
  GI50: 23 µM (inactive)
DU-145
  GI50: 21 µM (inactive)
OVCAR-3
  GI50: 35.5 µM (inactive)
HOP-62
  GI50: 35.2 µM (inactive)
SK-MEL-2
  GI50: 21.7 µM (inactive)
MCF7
  GI50: 17.3 µM (inactive)
OVCAR-5
  GI50: 40.5 µM (inactive)
T47D
  GI50: 16.8 µM (inactive)
SF-295
  GI50: 22.3 µM (inactive)
SK-OV-3
  GI50: 64.4 µM (inactive)
HT-29
  GI50: 28.4 µM (inactive)
IGROV-1
  GI50: 13.8 µM (inactive)
HCT-116
  GI50: 27.1 µM (inactive)
A498
  GI50: 41 µM (inactive)
MDA-MB-231
  GI50: 16.4 µM (inactive)
U-251
  GI50: 12.7 µM (inactive)
LOX IMVI
  GI50: 12.3 µM (inactive)
EKVX
  GI50: 34.8 µM (inactive)
NCI-H23
  GI50: 19.9 µM (inactive)
HOP-92
  GI50: 20.7 µM (inactive)
NCI-H226
  GI50: > 100 µM (inactive)
MDA-N
  GI50: 37.6 µM (inactive)
CAKI-1
  GI50: 42.4 µM (inactive)
UACC-257
  GI50: 27.8 µM (inactive)
COLO 205
  GI50: 90.6 µM (inactive)
NCI/ADR-RES
  GI50: 26 µM (inactive)
OVCAR-4
  GI50: 26 µM (inactive)
KM12
  GI50: 20.6 µM (inactive)
Hs-578T
  GI50: 14.3 µM (inactive)
HL-60
  GI50: > 100 µM (inactive)
RXF 393
  GI50: 4.06 µM (inactive)
MOLT-4
  GI50: > 100 µM (inactive)
NCI-H460
  GI50: 14.9 µM (inactive)
ACHN
  GI50: 29.2 µM (inactive)
SNB-19
  GI50: 30.4 µM (inactive)
BT-549
  GI50: 24.2 µM (inactive)
HCT-15
  GI50: 17.5 µM
Malme-3M
  GI50: 27.7 µM (inactive)
